# Results: patent US20210255193A1, “LYSINE REACTIVE PROBES AND USES THEREOF” (The Scripps Research Institute, priority 2017, published 2021)
# What was measured:
# Assay in all cases: competitive isoTOP-ABPP
# Format in all cases: binding
# FAM136A Protein FAM136A = target: T1, FAM136A Protein FAM136A (Homo sapiens, UniProt Q96C01); conditions: 50 uM, in vitro; for R value (DMSO/fragment) for probe 1 labeling: Q96C01_K99; for R value (DMSO/fragment) for probe 1 labeling / isoTOP-ABPP reactivity ratio at lysine Q96C01_K99: 231 sol
# T1 construct: isoTOP-ABPP experiments performed in cell lysates (in vitro); endogenous in cells; host or cells: soluble proteome of human cancer cell lines (MDA-MB-231; Ramos and Jurkat also prepared)
# In short: (§1)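 Readout: isotopic light/heavy MS1 peak-area ratio (R, DMSO heavy over compound light), median across peptides sharing a modified lysine. Lysate received fragment (activated esters 50 μM, guanidinylating agents 100 μM final) or DMSO, then 0.1 mM STP-alkyne probe for 1 h at ambient temperature.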
# [1] = target: T2, SOD2 Superoxide dismutase (Homo sapiens, UniProt P04179); conditions: 50 uM, 231 sol, in vitro; for R value (DMSO/fragment) for probe 1 labeling: P04179_K68
# T2 construct: isoTOP-ABPP experiments performed in cell lysates (in vitro); endogenous in cells; host or cells: MDA-MB-231 soluble lysate
# T2 sequence (P04179 25-222): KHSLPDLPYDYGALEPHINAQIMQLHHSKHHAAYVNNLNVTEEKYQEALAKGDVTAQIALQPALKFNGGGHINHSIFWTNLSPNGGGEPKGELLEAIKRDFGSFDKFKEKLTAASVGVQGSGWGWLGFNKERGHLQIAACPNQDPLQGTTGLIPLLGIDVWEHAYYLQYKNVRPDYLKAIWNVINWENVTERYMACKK
# In short: as §1
# [2] = target: T3, SMPD1 Sphingomyelin phosphodiesterase (Homo sapiens, UniProt P17405); conditions: 50 uM, in vitro
# T3 construct: isoTOP-ABPP experiments performed in cell lysates (in vitro); endogenous in cells; host or cells: soluble proteome of human cancer cell lines (MDA-MB-231; Ramos and Jurkat also prepared)
# T3 sequence (P17405 47-631): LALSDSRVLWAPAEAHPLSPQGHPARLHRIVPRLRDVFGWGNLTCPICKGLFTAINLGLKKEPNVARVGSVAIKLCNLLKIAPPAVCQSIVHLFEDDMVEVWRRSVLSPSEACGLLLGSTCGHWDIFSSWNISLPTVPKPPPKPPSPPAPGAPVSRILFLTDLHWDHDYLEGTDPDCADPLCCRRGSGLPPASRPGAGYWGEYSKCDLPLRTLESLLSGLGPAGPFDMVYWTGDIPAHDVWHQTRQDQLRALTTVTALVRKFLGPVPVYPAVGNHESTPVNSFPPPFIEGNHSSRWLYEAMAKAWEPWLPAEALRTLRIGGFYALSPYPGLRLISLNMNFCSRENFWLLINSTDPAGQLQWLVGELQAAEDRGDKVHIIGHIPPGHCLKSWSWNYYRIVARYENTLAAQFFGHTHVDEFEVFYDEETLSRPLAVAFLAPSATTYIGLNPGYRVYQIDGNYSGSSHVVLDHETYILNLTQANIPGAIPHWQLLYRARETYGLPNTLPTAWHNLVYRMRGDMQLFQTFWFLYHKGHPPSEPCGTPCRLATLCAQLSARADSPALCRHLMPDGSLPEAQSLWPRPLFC
# In short: as §1
# [3] = target: T4, MRPL12 39S ribosomal protein L12, mitochondrial (Homo sapiens, UniProt P52815); conditions: 50 uM, in vitro; for R value (DMSO/fragment) for probe 1 labeling: P52815_K87; for R value (DMSO/fragment) for probe 1 labeling / isoTOP-ABPP reactivity ratio at lysine P52815_K87: 231 sol
# T4 construct: isoTOP-ABPP experiments performed in cell lysates (in vitro); endogenous in cells; host or cells: soluble proteome of human cancer cell lines (MDA-MB-231, Ramos, Jurkat)
# In short: as §1
# T1 sequence (Q96C01 whole entry, the tested form may be a part): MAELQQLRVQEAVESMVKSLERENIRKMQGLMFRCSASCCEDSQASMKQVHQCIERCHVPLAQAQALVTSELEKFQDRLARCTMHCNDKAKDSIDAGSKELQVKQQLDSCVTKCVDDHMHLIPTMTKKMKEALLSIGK
structure (smiles),measurement,setting,value
"O=C(Oc1c(F)c(F)c(F)c(F)c1F)C(c1ccccc1)c1ccccc1 [fragment 20, Pentafluorophenyl 2,2-diphenylacetate]",R value (DMSO/fragment) for probe 1 labeling,FAM136A Protein FAM136A,0.9
same,R value (DMSO/fragment) for probe 1 labeling,[1],1.0
same,R value (DMSO/fragment) for probe 1 labeling,"[2]; P17405_K118, 231 sol",1.4
same,R value (DMSO/fragment) for probe 1 labeling,[3],0.9
"O=C(Oc1c(F)c(F)c(F)c(F)c1F)c1cc(C(F)(F)F)cc(C(F)(F)F)c1 [fragment 21, Pentafluorophenyl 3,5-bis(trifluoromethyl)benzoate]",R value (DMSO/fragment) for probe 1 labeling,FAM136A Protein FAM136A,1.1
same,R value (DMSO/fragment) for probe 1 labeling,[1],1.2
same,R value (DMSO/fragment) for probe 1 labeling,[3],0.6
"Cn1cc(CC(=O)Oc2c(F)c(F)c(F)c(F)c2F)c2ccccc21 [fragment 22, Pentafluorophenyl 2-(1-methyl-1H-indol-3-yl)acetate]",R value (DMSO/fragment) for probe 1 labeling,[1],1.0
same,R value (DMSO/fragment) for probe 1 labeling,[3],1.4
"O=C(CCc1coc2cc(F)ccc2c1=O)Oc1c(F)c(F)c(F)c(F)c1F [fragment 26, Pentafluorophenyl 3-(7-fluoro-4-oxo-4H-chromen-3-yl)propanoate]",isoTOP-ABPP reactivity ratio at lysine Q96C01_K99,FAM136A Protein FAM136A,0.9
same,isoTOP-ABPP reactivity ratio at lysine P04179_K68,[1],1.2
"O=C(CN1C(=O)c2ccccc2C1=O)Oc1c(F)c(F)c(F)c(F)c1F [fragment 27, Pentafluorophenyl 2-(1,3-dioxoisoindolin-2-yl)acetate]",isoTOP-ABPP reactivity ratio at lysine P04179_K68,[1],0.9
"CCn1cc(C(=O)Oc2c(F)c(F)c(F)c(F)c2F)c(=O)c2ccc(C)nc21 [fragment 28, Pentafluorophenyl 1-ethyl-7-methyl-4-oxo-1,4-dihydro-1,8-naphthyridine-3-carboxylate]",isoTOP-ABPP reactivity ratio at lysine P04179_K68,[1],0.8
same,isoTOP-ABPP reactivity ratio at lysine P52815_K87,[3],0.8
"O=C(CCc1cn(-c2ccccc2)nc1-c1ccccc1)Oc1ccc([N+](=O)[O-])cc1[N+](=O)[O-] [fragment 29, 2,4-Dinitrophenyl 3-(1,3-diphenyl-1H-pyrazol-4-yl)propanoate]",isoTOP-ABPP reactivity ratio at lysine Q96C01_K99,FAM136A Protein FAM136A,0.8
same,isoTOP-ABPP reactivity ratio at lysine P17405_K118,[2]; 231 sol,2.5
same,isoTOP-ABPP reactivity ratio at lysine P52815_K87,[3],1.1
"O=C(Oc1ccc([N+](=O)[O-])cc1[N+](=O)[O-])C(c1ccccc1)c1ccccc1 [fragment 30, 2,4-Dinitrophenyl 2,2-diphenylacetate]",isoTOP-ABPP reactivity ratio at lysine Q96C01_K99,FAM136A Protein FAM136A,0.8
same,isoTOP-ABPP reactivity ratio at lysine P04179_K68,[1],1.1
"O=C(Oc1ccc([N+](=O)[O-])cc1[N+](=O)[O-])c1cc(C(F)(F)F)cc(C(F)(F)F)c1 [fragment 31, 2,4-Dinitrophenyl 3,5-bis(trifluoromethyl)benzoate]",isoTOP-ABPP reactivity ratio at lysine P04179_K68,[1],1.5
"Cn1cc(CC(=O)Oc2ccc([N+](=O)[O-])cc2[N+](=O)[O-])c2ccccc21 [fragment 32, 2,4-Dinitrophenyl 2-(1-methyl-1H-indol-3-yl)acetate]",isoTOP-ABPP reactivity ratio at lysine Q96C01_K99,FAM136A Protein FAM136A,0.9
same,isoTOP-ABPP reactivity ratio at lysine P04179_K68,[1],1.1
"COc1cc(CCC(=O)Oc2ccc([N+](=O)[O-])cc2[N+](=O)[O-])cc(OC)c1OC [fragment 33, 2,4-Dinitrophenyl 3-(3,4,5-trimethoxyphenyl)propanoate]",isoTOP-ABPP reactivity ratio at lysine Q96C01_K99,FAM136A Protein FAM136A,0.7
same,isoTOP-ABPP reactivity ratio at lysine P52815_K87,[3],2.1
"O=C(Oc1ccc([N+](=O)[O-])cc1[N+](=O)[O-])C1CCN(C(=O)OCc2ccccc2)CC1 [fragment 34, 1-Benzyl 4-(2,4-dinitrophenyl) piperidine-1,4-dicarboxylate]",isoTOP-ABPP ratio (R) at liganded lysine Q96C01_K99,"FAM136A Protein FAM136A; sol, 231",1.2
"O=C(Oc1ccc([N+](=O)[O-])cc1[N+](=O)[O-])c1ccc2ccccc2n1 [fragment 35, 2,4-Dinitrophenyl quinoline-2-carboxylate]",isoTOP-ABPP ratio (R) at liganded lysine P17405_K118,"[2]; sol, 231",1.4
same,isoTOP-ABPP ratio (R) at liganded lysine P52815_K87,"[3]; sol, 231",0.9
